Measurements reported in patent publication EP2066677B1, “PYRIDOOXAZEPINE PROGESTERON RECEPTOR MODULATORS” (N.V. Organon, priority 2006, dated 2008).

system: mature cyclic rats; assay: Ovulation inhibition in rat (in vivo progestagenic activity); conditions: 96 h, minimal active dose: level at which average number of ova is reduced by 60% relative to placebo, oral administration for 1 complete cycle (4 days), read-out: MAD
Procedure: Ovulation inhibition after oral administration of the compounds of the invention was studied in mature cyclic rats. Animals were treated with test compound (oral administration) for 1 complete cycle (4 days, from oestrus to pro-oestrus) and the number of ova in the oviduct was microscopically assessed at autopsy in the morning of the next (expected) oestrus. The average number of ova per rat was calculated; the minimal active dose (MAD) is defined as the level at which the average number of ova is reduced by 60% relative to placebo-treated animals.

Row | Structure (SMILES) | minimal effective dose
1 | N#Cc1cc2c(cc1F)Oc1ccccc1[C@@H]1[C@@H](NC(=O)C(F)(F)F)CCCN21 (single isomer, unassigned) [Example 2, (-)-(cis)-N-(7-cyano-8-fluoro-1,3,4,14b-tetrahydro-2H-dibenzo[b,f]pyrido[1,2-d] [1,4]oxazepin-1-yl)-2,2,2-trifluoroacetamide] | 0.014 mg/kg
2 | CC(=O)N[C@H]1CCCN2c3c(cc(F)c(C#N)c3Cl)Oc3cccc(F)c3[C@H]12 (single isomer, unassigned) [Example 6, (-)-(cis)-N-(6-chloro-7-cyano-8,14-difluoro-1,3,4,14b-tetrahydro-2H-dibenzo[b,f]pyrido[1,2-d][1,4]oxazepin-1-yl)acetamide] | < 0.02 mg/kg
3 | N#Cc1c(F)cc2c(c1Cl)N1CCC[C@H](NC(=O)C(F)(F)F)[C@H]1c1cccc(F)c1O2 (single isomer, unassigned) [Example 7, (-)-(cis)-N-(6-chIoro-7-cyano-8,11-difluoro-1,3,4,14b-tetrahydro-2H-dibenzo[b,f]pyrido[1,2-d][1,4]oxazepin-1-yl)-2,2,2-trifluoroacetamide] | 0.025 mg/kg
4 | C=Cc1cccc2c1N1CCC[C@H](NC(=O)C(F)(F)F)[C@H]1c1ccccc1O2 (single isomer, unassigned) [eutomer of example 54 of WO03/084963, reference compound] | > 4 mg/kg
5 | N#Cc1c(F)cc2c(c1Cl)N1CCC[C@@H](NC(=O)C(F)(F)F)[C@@H]1c1ccccc1O2 [Example 3, (-)-(cis)-N-[6-chloro-7-cyano-8-fluoro-1,3,4,14b-tetrahydro-2H-dibenzo[b,f]pyrido[1,2-d][1,4]oxazepin-1-yl]-2,2,2-trifluoroacetamide] | 0.08 mg/kg
6 | N#Cc1c(F)cc2c(c1C#N)N1CCC[C@@H](NC(=O)C(F)(F)F)[C@@H]1c1ccccc1O2 [Example 4, (-)-(cis)-N-(6,7-dicyano-8-fluoro-1,3,4,14b-tetrahydro-2H-dibenzo[b,f]pyrido [1,2-d][1,4]oxazepin-1-yl)-2,2,2-trifluoroacetamide] | 0.02 mg/kg
7 | N#Cc1c(F)cc2c(c1Cl)N1CCC[C@@H](NC(=O)C(F)(F)F)[C@@H]1c1ccc(F)cc1O2 [Example 5, (-)-(cis)-N-(6-chloro-7-cyano-8,12-difluoro-1,3,4,14b-tetrahydro-2H-dibenzo[b,f]pyrido[1,2-d][1,4]oxazepin-1-yl)-2,2,2-trifluoroacetamide] | ≤ 0.025 mg/kg
8 | N#Cc1cc2c(cc1F)Oc1cccc(F)c1[C@H]1[C@H](NC(=O)C(F)(F)F)CCCN21 [Example 8, (-)-(cis)-N-(7-cyano-8,14-difluoro-1,3,4,14b-tetrahydro-2H-dibenzo[b,f]pyrido [1,2-d][1,4]oxazepin-1-yl)-2,2,2-trifluoroacetamide] | 0.01 mg/kg
9 | N#Cc1c(F)cc2c(c1Cl)N1CCC[C@@H](NC(=O)C(F)(F)F)[C@@H]1c1c(F)cccc1O2 [Example 9, (-)-(cis)-N-(6-chloro-7-cyano-8,14-difluoro-1,3,4,14b-tetrahydro-2H-dibenzo [b,f]pyrido[1,2-d][1,4]oxazepin-1-yl)-2,2,2-trifluoroacetamide] | < 0.02 mg/kg
